From paper PMC12647591, “Evolution, structure and function of L-cysteine desulfidase, an enzyme involved in sulfur metabolism in the methanogenic archeon Methanococcus maripaludis” (Communications Biology, 2025)
Where a chain is given by its changes, count along the chain named. One block for each molecule: values may come before it.

Key:
[1] = target: T1, L-cysteine desulfidase CyuA (MmCyuA) (Methanococcus maripaludis, UniProt Q6LX84); experiment: pyruvate formation assay ([…],4-dinitrophenylhydrazine), Lineweaver-Burk and Dixon plots; type: biochemical; design: gene MMP1468; holo-MmCyuA, recombinant, His-tag removed
T1 sequence (Q6LX84 whole entry): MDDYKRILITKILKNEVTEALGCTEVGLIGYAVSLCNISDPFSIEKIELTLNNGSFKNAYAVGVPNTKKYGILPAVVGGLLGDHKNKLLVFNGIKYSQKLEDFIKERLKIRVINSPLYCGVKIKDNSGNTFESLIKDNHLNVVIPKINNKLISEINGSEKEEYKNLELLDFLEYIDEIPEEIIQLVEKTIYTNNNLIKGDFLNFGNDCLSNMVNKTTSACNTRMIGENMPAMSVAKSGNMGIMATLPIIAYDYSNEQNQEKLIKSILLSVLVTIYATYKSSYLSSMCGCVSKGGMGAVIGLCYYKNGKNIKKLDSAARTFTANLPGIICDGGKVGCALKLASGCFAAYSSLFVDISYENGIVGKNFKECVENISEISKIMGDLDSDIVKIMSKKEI

[2] = target: T2, L-cysteine desulfidase CyuA (MmCyuA) (Methanococcus maripaludis, UniProt Q6LX84, C289A); experiment: crystal structure, […] Å (from cryoprotectant); type: binding
T2 construct: gene MMP1468; holo-C289A-MmCyuA
T2 sequence (Q6LX84 1-396 C289A): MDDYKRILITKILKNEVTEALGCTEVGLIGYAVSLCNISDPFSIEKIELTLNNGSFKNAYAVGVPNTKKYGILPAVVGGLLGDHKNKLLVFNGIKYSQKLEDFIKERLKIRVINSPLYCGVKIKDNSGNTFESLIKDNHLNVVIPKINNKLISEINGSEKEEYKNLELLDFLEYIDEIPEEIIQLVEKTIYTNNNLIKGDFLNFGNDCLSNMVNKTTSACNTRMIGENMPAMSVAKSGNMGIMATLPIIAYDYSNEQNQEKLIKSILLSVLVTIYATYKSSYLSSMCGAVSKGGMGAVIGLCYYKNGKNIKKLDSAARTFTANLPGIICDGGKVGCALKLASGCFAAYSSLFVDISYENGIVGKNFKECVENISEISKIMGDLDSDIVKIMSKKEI

[3] = target: T1, L-cysteine desulfidase CyuA (MmCyuA); experiment: crystal structure, […] Å (from crystallization solution); type: binding; design: gene MMP1468; [2Fe-2S]-MmCyuA, molecule A
[4] = target: the molecule itself; experiment: SEC-MALS; apo-MmCyuA (cluster removed with dithionite and EDTA), 100 uL at 2 mg/mL on Superdex 200 10/300 GL Increase, 50 mM Tris-HCl pH 8.5, 300 mM NaCl, 5 mM DTT

Ki [1]: 15 ± 0.3 µM
Molecule: N[C@@H](CO)C(=O)O [L-serine]

Molecule: OCC(O)CO [GOL, glycerol]
crystal structure, 3.18 Å (from cryoprotectant) [2]: One terminal hydroxyl of the glycerol molecule was coordinated to that Fe atom

Molecule: O=S(=O)(O)CCN1CCOCC1 [2-(N-morpholino)ethanesulfonic acid]
crystal structure, 2.42 Å (from crystallization solution) [3]: sulfonate group of MES and the chloride ion were located at the same anion binding site

B1: L-cysteine desulfidase CyuA from Methanococcus maripaludis (enzyme, Methanococcus maripaludis strain S2)
chain: T2 sequence (Q6LX84 1-396 C289A) with A289C
notes: L-cysteine desulfidase CyuA (MmCyuA), product of the mmp1468 gene of Methanococcus maripaludis strain S2 (NC_005791.1); synthetic codon-optimised gene in pET15b between NdeI and BamHI; theoretical mass of the monomer 43.7 kDa; the synthetic mmp1468 gene appears to have been cloned whole; Holo form carries one [4Fe-4S] cluster per monomer (Cys287, Cys289, Cys329, Cys336); in crystal 2 a [2Fe-2S] …
stoichiometry N [4]: 2
